The nature of data set [1]: Binding constant measured using a microcalorimeter (VP-ITC). As to conditions: 0.05 M tris buffered solution pH 7.2. How it is done: A 5.5 mM CB*[5] solution and 110 mM-KCl solution were prepared with 0.05 M tris buffered solution having a pH of 7.2. Then, the binding constant of CB*[5] was measured using a microcalorimeter (VP-ITC, manufactured by MicroCal). As a result, CB*[5] forms a 1:2 complex with potassium ions with a primary binding constant of 2.8×10^4 M^−1 and a secondary binding constant of 1.5×10^2 M^−1. CB*[5] can selectively bind with alkali metal ions, as well as with ammonium ions. The result confirms that cucurbituril derivatives can be used as ion sensors.

A short description of data set [2]: Solubilities of the cucurbituril derivatives in water, methanol, dimethylsulfoxide and acetonitrile. It counts as physicochemical.

Molecules are shown by their SMILES. Values after ≈ are worked out from the molar mass of the structure shown.

A word on the Solubility: it is the concentration that dissolves in the medium under given conditions. A low value points to little dissolved substance.

For the compound `O=C1N2CN3C(=O)N4CN5C(=O)N6CN7C(=O)N8CN9C(=O)N%10CN1C1%11CCCCC21N1CN2C(=O)N(CN%12C(=O)N(CN%13C(=O)N(CN%14C(=O)N(CN%11C1=O)C%101CCCCC9%141)C81CCCCC7%131)C61CCCCC5%121)C41CCCCC321` (stereo not shown) [CB*[5]], the “complex stoichiometry with potassium ions” value in data set [1] is 1:2 complex. In data set [1] (potassium ions (KCl)), the primary binding constant turned out to be 28000 M⁻¹. The compound further displayed a secondary binding constant in data set [1] (potassium ions (KCl)) of 150 M⁻¹. The Solubility in data set [2] (Acetonitrile) is 0.67 mM (≈ 0.738 mg/mL); in data set [2] (Dimethylsulfoxide), 18 mM (≈ 19.8 mg/mL); in data set [2] (Methanol), 31 mM (≈ 34.1 mg/mL); in data set [2] (Water), 260 mM (≈ 286 mg/mL).

The values are drawn from patent US7179908B2, “Water-and organic-soluble cucurbituril derivatives, their preparation methods, their separation methods and uses” (Pohang University of Science and Technology Foundation, priority 2001, dated 2007).
